{"source": "patent US7638122B2", "about": "“Stat3 antagonists and their use as vaccines against cancer” (University of South Florida, priority 2003, dated 2009)", "tested_on": "bone marrow progenitor cells", "experiment": "DC differentiation/maturation from bone marrow progenitor cells in the presence of tumor supernatants", "assay_type": "cell-based, mouse", "conditions": "supernatant from CT26 tumor cells (5%), 375 μM peptide, 6 days", "description": "FIG. 7. Inhibition of Stat activity in dendritic cells alleviates the negative effect of tumor-secreted factors on DC differentiation. a, Stat activation in DCs treated for 1 hour with recombinant VEGF (100 ng/ml) or incubated for 15 min. with various supernatants as indicated. […] Bone marrow progenitor cells were cultured for 6 days in DC medium alone or in the presence of supernatant from CT26 tumor cells (5%) plus 375 μM of anti-Stat3 (PY*LKTK) (SEQ ID NO: 11); or control (PYLKTK) (SEQ ID NO: 12); peptide.\nPreparation of bone marrow progenitor cells (BMPCs) and generation of bone marrow-derived mature DCs were carried out according to a previously described protocol (Lu et al., 2000, J. Exp. Med. 191: 541-550). Relatively mature DCs were obtained by incubating, BMPCs in medium containing GM-CSF and IL-4 for 6 days. […] Following 48 hours culture, suspension cells were collected and analyzed for IL-12 secretion by ELISA (R & D) and expression of DC-surface markers (CD86, CD40 and MHC Class II) by flow cytometry. All antibodies were purchased from PharMingen and surface expression was analyzed using a FACScan cytofluorometer (Becton Dickinson) as previously described, (Lu et al., 2000, supra). […] T-cell proliferation was measured by [^3H]-thymidine incorporation over 18 hours.", "note": "Square brackets hold non-standard residues; d marks the D form. Ends that are not written are not given here. pY = N[C@@H](Cc1ccc(OP(=O)(O)O)cc1)C(=O)O"}
{"substance": "PY*LKTK (P[pY]LKTK)", "values": [{"measurement": "effect of tumor-derived factors on DC differentiation", "value": "relieve the negative effect of tumor-derived factors on DC differentiation"}]}
